Results taken from US20080107625A1, “Inhibitors of Hepatitis C Virus” (Bristol-Myers Squibb Company, priority 2006, published 2008).

Experiments:
[1] = target: HCV NS3/4A protease complex, BMS strain (Hepatitis C virus genotype 1a, UniProt P27958, C1454S/C1711G); experiment: FRET peptide assay to monitor HCV NS3/4A proteolytic activity (BMS strain); format: biochemical; conditions: read-out: IC50 against the NS3/4A BMS strain in the enzyme assay
From the text: HCV NS3 protease complexes, derived from the BMS strain, H77 strain or J4L6S strain, were generated, as described below. These purified recombinant proteins were generated for use in a homogeneous assay (see below) to provide an indication of how effective compounds of the present disclosure would be in inhibiting HCV NS3 proteolytic activity.
Serum from an HCV-infected patient was obtained from Dr. T. Wright, San Francisco Hospital. […]
In order to monitor HCV NS3/4A protease activity, an NS3/4A peptide substrate was used. […] The peptide also contains a fluorescence donor, EDANS, near one end of the peptide and an acceptor, DABCYL, near the other end. The fluorescence of the peptide is quenched by […] resonance energy transfer (RET) between the donor and the acceptor, but as the NS3 protease cleaves the peptide the products are released from RET quenching and the fluorescence of the donor becomes apparent.
The peptide substrate was incubated with one of the three recombinant NS3/4A protease complexes, in the absence or presence of a compound of the present disclosure. The inhibitory effects of a compound was determined by monitoring the formation of fluorescent reaction product in real time using a Cytofluor Series 4000. […]

[2] = target: T1, porcine pancreatic elastase (PPE) (Sus scrofa, UniProt P00772); experiment: Specificity assay, pancreatic elastase; format: biochemical
T1 construct: purchased Sigma or EMDbiosciences
Method: The specificities of compounds of the present disclosure were determined against a variety of serine proteases: human neutrophil elastase (HNE), porcine pancreatic elastase (PPE) and human pancreatic chymotrypsin and one cysteine protease: human liver cathepsin B. In all cases, a 96-well plate format protocol using colorimetric p-nitroaniline (pNA) substrate or fluorometric Amino-Methyl-Coumarin (AMC) substrate, specific for each enzyme was used as described previously (PCT Patent Application No. WO 00/09543) with some modifications. All enzymes were purchased from Sigma or EMDbiosciences while the substrates were from Bachem.
Each pNA assay included a 2 h enzyme-inhibitor pre-incubation at room temperature followed by addition of substrate and hydrolysis to ˜15% conversion as measured on a Spectramax Pro microplate reader. The cathepsin B assay was initiated by adding substrate to a 10 min enzyme-inhibitor pre-incubation at room temperature, and the assay plate measured immediately using the Cytofluor Series 4000. Compound concentrations varied from 100 to 0.4 μM depending on their potency.
50 mM Tris(hydroxymethyl)aminomethane hydrochloride (Tris-HCl) pH 8, 0.5 M Sodium Sulfate (Na2SO4), 50 mM NaCl, 0.1 mM EDTA, 3% DMSO, 0.01% Tween-20 with: […]
The percentage of inhibition was calculated using the formula: [1−((UVinh−UVblank)/(UVctl−UVblank))]×100 […]

HCV NS3/4A protease complex, BMS strain, sequence (P27958 1027-1711 C1454S/C1711G, one chain of several): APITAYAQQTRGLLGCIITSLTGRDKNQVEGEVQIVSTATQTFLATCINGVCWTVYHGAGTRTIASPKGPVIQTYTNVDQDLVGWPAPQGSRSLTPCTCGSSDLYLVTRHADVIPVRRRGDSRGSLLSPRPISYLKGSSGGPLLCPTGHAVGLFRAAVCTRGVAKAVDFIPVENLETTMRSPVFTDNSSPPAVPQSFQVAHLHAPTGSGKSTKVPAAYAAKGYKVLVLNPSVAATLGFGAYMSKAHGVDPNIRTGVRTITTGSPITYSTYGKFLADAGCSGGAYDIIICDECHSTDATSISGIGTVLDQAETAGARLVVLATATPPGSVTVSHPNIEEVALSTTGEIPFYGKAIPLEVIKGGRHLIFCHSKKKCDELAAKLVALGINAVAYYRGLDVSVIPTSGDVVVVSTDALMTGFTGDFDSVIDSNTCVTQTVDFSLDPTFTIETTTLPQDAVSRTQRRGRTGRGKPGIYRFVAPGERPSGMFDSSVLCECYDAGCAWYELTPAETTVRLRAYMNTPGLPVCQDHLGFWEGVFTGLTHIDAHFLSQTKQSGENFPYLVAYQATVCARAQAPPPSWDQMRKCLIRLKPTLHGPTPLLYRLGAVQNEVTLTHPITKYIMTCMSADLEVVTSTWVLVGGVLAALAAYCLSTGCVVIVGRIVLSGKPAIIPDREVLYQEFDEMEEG
T1 sequence (P00772 27-266): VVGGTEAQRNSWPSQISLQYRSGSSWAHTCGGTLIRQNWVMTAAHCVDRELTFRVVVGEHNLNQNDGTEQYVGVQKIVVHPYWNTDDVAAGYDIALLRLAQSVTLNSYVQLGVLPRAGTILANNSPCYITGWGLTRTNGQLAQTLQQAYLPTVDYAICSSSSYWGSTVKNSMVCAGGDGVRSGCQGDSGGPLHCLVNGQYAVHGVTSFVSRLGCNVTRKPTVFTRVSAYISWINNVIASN

`CC(C)(C)OC(=O)N[C@H]1CN(C2CC2)CCC/C=C\C2C[C@@]2(C(=O)NS(=O)(=O)C2CC2)NC(=O)[C@@H]2C[C@@H](Oc3ccccn3)CN2C1=O` (some centres unmarked) [Compound 1] was tested, and the IC50 [1] was 98 nM and the IC50 [2] was > 100000 nM.
